US10865216B2, “Tricyclic Gyrase inhibitors” (MERCK SHARP & DOHME CORP., priority 2012, dated 2020)
Values after ≈ are worked out from the molar mass of the structure shown. Like-named read-outs stand apart in the source and are kept apart here.

Columns and labels:
E. coli ATCC 25922 = assay: MIC, E. coli ATCC 25922; assay type: cell-based; settings: for MIC: Escherichia coli
S. aureus ATCC 13709 = assay: MIC, S. aureus ATCC 13709; assay type: cell-based; settings: for MIC: Staphylococcus aureus
[1] = E. coli, Alamar Blue read after overnight incubation at 35° C.
[2] = S. aureus, Alamar Blue read after overnight incubation at 35° C.
[3] = ATCC25922, E. coli, Alamar Blue read after overnight incubation at 35° C., read-out: MIC Ec
[4] = ATCC13709, S. aureus, Alamar Blue read after overnight incubation at 35° C., read-out: MIC Sa
[5] = ATCC25922, Table 15, R2 is joined to R4, EC8 not defined, read-out: EC8 MIC
[6] = ATCC13709, Table 15, R2 is joined to R4, read-out: SA MIC

SMILES | MIC Ec (E. coli ATCC 25922; [1]) [µg/mL] | MIC Sa (S. aureus ATCC 13709; [2]) [µg/mL] | also measured
CCc1cc(F)cc2c1[nH]c1nc(Oc3cnc(C)nc3)nc(N3CC4CC(N)C4C3)c12 (centres unmarked) [Compound 2.4] | 1 (≈ 2.31 µM) | ≤0.5 | –
CNc1cc(F)c(F)c2c1[nH]c1nc(Oc3ncc(C)cn3)nc(N3CC(N)C3)c12 [Compound 5.06] | ≤0.5 | ≤0.5 | –
CNc1cc(F)cc2c1[nH]c1nc(Oc3cnc(C)nc3)nc(N3CC4(CCC4N)C3)c12 (centres unmarked) [Compound 4.100] | ≤0.5 | ≤0.5 | –
CNc1cccc2c1[nH]c1nc(Sc3cncnc3)nc(N3CC(N)C4(CC4)C3)c12 (centres unmarked) [Compound 1.44] | – | – | MIC (E. coli ATCC 25922; [3]): 2 µg/mL (≈ 4.78 µM); MIC (S. aureus ATCC 13709; [4]): 1 µg/mL (≈ 2.39 µM)
CNc1cc(F)cc2c1[nH]c1nc(Cc3cnc(C)nc3)nc(N3CC[C@@]4(C[C@H]4N)C3)c12 | – | – | EC8 MIC (E. coli ATCC 25922; Table 11, L = CH2, EC8 not defined): 2 µg/mL; SA MIC (S. aureus ATCC 13709; Table 11, compounds wherein L = CH2): ≤ 0.5 µg/mL
CNc1cccc2c1[nH]c1nc(Oc3cncnc3)cc(N3CCC[C@@H](N)C3)c12 [Compound 3.16] | – | – | MIC (E. coli ATCC 25922; [3]): 4 µg/mL (≈ 10.3 µM); MIC (S. aureus ATCC 13709; [4]): 4 µg/mL (≈ 10.3 µM)
CNc1cc(F)cc2c1[nH]c1nc(Oc3cnc(C(C)(C)C)nc3)nc(N3CC4CC3C[C@H]4N)c12 (some centres unmarked) [Compound 4.441] | – | – | MIC (E. coli ATCC 25922; [3]): ≤ 0.5 µg/mL; MIC (S. aureus ATCC 13709; [4]): ≤ 0.5 µg/mL
CNc1cc(F)cc2c1[nH]c1nc(Oc3cncnc3)nc(N3CC(N)CC3C)c12 (centres unmarked) [Compound 4.029] | 16 (≈ 39.2 µM) | 4 (≈ 9.79 µM) | –
CNc1cccc2c1[nH]c1nc(Oc3cncc(C#N)c3)cc(N3CC(N)C4(CC4)C3)c12 (centres unmarked) [Compound 3.43] | – | – | MIC (E. coli ATCC 25922; [3]): 1 µg/mL (≈ 2.35 µM); MIC (S. aureus ATCC 13709; [4]): ≤ 0.5 µg/mL
CNc1cccc2c1[nH]c1nc(Oc3cncc(C(N)=O)c3)cc(N3CC4C(N)C4C3)c12 (centres unmarked) [Compound 3.19] | – | – | MIC (E. coli ATCC 25922; [3]): 32 µg/mL (≈ 74.5 µM); MIC (S. aureus ATCC 13709; [4]): 8 µg/mL (≈ 18.6 µM)
CNc1cc(F)cc2c1[nH]c1nc(Oc3cnc(C(C)O)c(Cl)c3)nc(N3CC4CCNC4C3)c12 (centres unmarked) [Compound 10.16] | – | – | MIC Ec (E. coli ATCC 25922; Table 18, Ec): ≤ 0.5 µg/mL; MIC Sa (S. aureus ATCC 13709; Table 18, Sa): ≤ 0.5 µg/mL
NC1C2CN(c3nc(Sc4cnc5ccc[n+]([O-])c5c4)nc4[nH]c5c(Cl)cccc5c34)CC12 (centres unmarked) [Compound 1.03] | >64 | 32 (≈ 67.2 µM) | –
CNc1cc(F)cc2c1[nH]c1nc(Oc3cncc(Cl)c3)nc(N3CC4C(N)C4C3)c12 (centres unmarked) [Compound 4.272] | ≤0.5 | ≤0.5 | –
CNc1cc(F)cc2c1[nH]c1nc(Oc3cnc(C)nc3)nc(N3CCC(S(N)(=O)=O)C3)c12 (centres unmarked) [Compound 10.104] | – | – | MIC Ec (E. coli ATCC 25922; Table 18, Ec): 8 µg/mL (≈ 16.9 µM); MIC Sa (S. aureus ATCC 13709; Table 18, Sa): ≤ 0.5 µg/mL
CNc1cc(F)cc2c1[nH]c1nc(Oc3cnc4c(C)cnn4c3)nc(N3C[C@H]4CCN[C@H]4C3)c12 [Compound 10.24] | – | – | MIC Ec (E. coli ATCC 25922; Table 18, Ec): ≤ 0.5 µg/mL; MIC Sa (S. aureus ATCC 13709; Table 18, Sa): ≤ 0.5 µg/mL
CNc1cc(F)cc2c1[nH]c1nc(Oc3cnc(C)nc3)nc(N3C4CCC3CC(N)C4)c12 (centres unmarked) [Compound 4.091] | 1 (≈ 2.23 µM) | ≤0.5 | –
CNc1cc(F)cc2c1[nH]c1nc(Oc3cnc(N)nc3)nc(N3CC4CCNC4C3)c12 (centres unmarked) [Compound 4.187] | 2 (≈ 4.59 µM) | ≤0.5 | –
CNc1cc(F)cc2c1[nH]c1nc(Oc3cnc(C)nc3)nc(N3CCC(N)C(C)(C)C3)c12 (centres unmarked) [Compound 4.152] | 1 (≈ 2.22 µM) | ≤0.5 | –
CNc1cc(F)cc2c1[nH]c1nc3nc(c12)NCCCCCCNC(=O)CSc1ncc(cn1)O3 | – | – | MIC (E. coli ATCC 25922; [5]): > 16 µg/mL; MIC (S. aureus ATCC 13709; [6]): ≤ 0.5 µg/mL
CNc1cccc2c1[nH]c1nc(Oc3cncc(C#N)c3)cc(N3C[C@@H](NC)C4(CC4)C3)c12 [Compound 3.44] | – | – | MIC (E. coli ATCC 25922; [3]): 16 µg/mL (≈ 36.4 µM); MIC (S. aureus ATCC 13709; [4]): 8 µg/mL (≈ 18.2 µM)
CNc1cc(F)cc2c1[nH]c1nc(Sc3cnc4ccc[n+]([O-])c4c3)nc(N3CCC4(CC4N)C3)c12 (centres unmarked) [Compound 1.64] | – | – | MIC (E. coli ATCC 25922; [3]): ≤ 0.5 µg/mL; MIC (S. aureus ATCC 13709; [4]): ≤ 0.5 µg/mL
CNc1cccc2c1[nH]c1nc(Sc3cnc4ccc[n+]([O-])c4c3)nc(N3CCC[C@@H](N)C3)c12 [Compound 1.34] | – | – | MIC (E. coli ATCC 25922; [3]): 4 µg/mL (≈ 8.46 µM); MIC (S. aureus ATCC 13709; [4]): 1 µg/mL (≈ 2.12 µM)

SMILES | MIC Ec (E. coli ATCC 25922; [1]) [µg/mL] | MIC Sa (S. aureus ATCC 13709; [2]) [µg/mL] | also measured
CNc1cc(F)cc2c1[nH]c1nc(Oc3ccc(C(C)=O)nc3)nc(N3CC4CCNC4C3)c12 (centres unmarked) [Compound 4.309] | ≤0.5 | ≤0.5 | –
CNc1cc(F)cc2c1[nH]c1nc(Oc3cnc(C4CC4)nc3)nc(N3CC4CC4(CN)C3)c12 (centres unmarked) [Compound 4.246] | ≤0.5 | ≤0.5 | –
CNc1cc(F)cc2c1[nH]c1nc(Nc3cnc(C)nc3)nc(N3C[C@H]4C[C@@H]3C[C@H]4N)c12 [Compound 10.41] | – | – | MIC Ec (E. coli ATCC 25922; Table 18, Ec): ≤ 0.5 µg/mL; MIC Sa (S. aureus ATCC 13709; Table 18, Sa): ≤ 0.5 µg/mL
CNc1cc(F)cc2c1[nH]c1nc(Oc3cnc(C)nc3)nc(N3CCC4(CCNC4)C3)c12 (centres unmarked) [Compound 4.126] | 2 (≈ 4.46 µM) | ≤0.5 | –
CNc1cc(F)cc2c1[nH]c1nc(Oc3cnc(C#N)c(C)c3)nc(N3CC4CC(N)C4C3)c12 (centres unmarked) [Compound 4.323] | 1 (≈ 2.18 µM) | ≤0.5 | –
CNc1cc(F)cc2c1[nH]c1nc(Oc3cncc(F)c3)nc(N3CC4(CCC4N)C3)c12 (centres unmarked) [Compound 4.061] | ≤0.5 | ≤0.5 | –
NC1CCN(c2nc(Sc3cnc4nccnc4c3)nc3[nH]c4ccccc4c23)C1 (centres unmarked) [Compound 1.06] | >64 | 32 (≈ 77.2 µM) | –
CNc1cc(F)cc2c1[nH]c1nc(Oc3cncc(-c4nnn(C)n4)c3)nc(N3CC4C(N)C4C3)c12 (centres unmarked) [Compound 4.210] | 1 (≈ 2.05 µM) | ≤0.5 | –
CNc1cc(F)cc2c1[nH]c1nc(Oc3cncnc3)nc(N3CCC4(CCNC4)C3)c12 (centres unmarked) [Compound 4.033] | 4 (≈ 9.21 µM) | ≤0.5 | –
CNc1cc(F)cc2c1[nH]c1nc(Oc3cnc4c(c3)ncn4C)nc(N3CC[C@@H](N)C3)c12 [Compound 4.225] | 2 (≈ 4.47 µM) | ≤0.5 | –
CNc1cc(F)cc2c1[nH]c1nc3nc(c12)NCCCCCCNC(=O)c1cncc(c1)O3 | – | – | MIC (E. coli ATCC 25922; [5]): 1 µg/mL (≈ 2.22 µM); MIC (S. aureus ATCC 13709; [6]): ≤ 0.5 µg/mL
CNc1cc(F)cc2c1[nH]c1nc(Oc3cncnc3)nc(N3CC(N)C4(CC4)C3)c12 (centres unmarked) [Compound 4.002] | ≤0.5 | ≤0.5 | –
CNc1cc(F)cc2c1[nH]c1nc(Oc3cnc(C)nc3)nc(N3CC(N)C(C(=O)OC)C3)c12 (centres unmarked) [drawing 1825] | – | – | MIC (E. coli ATCC 25922; ATCC25922, Table 16, new R4 substituents, EC8 not defined, read-out: EC8 MIC): 1 µg/mL (≈ 2.14 µM); MIC (S. aureus ATCC 13709; ATCC13709, Table 16, new R4 substituents, read-out: SA MIC): ≤ 0.5 µg/mL
CNc1cc(F)cc2c1[nH]c1nc(Oc3ccc4c(c3)C(=O)NC4)nc(N3CC4CCNC4C3)c12 (centres unmarked) [Compound 4.269] | 4 (≈ 8.45 µM) | ≤0.5 | –
CNc1cc(F)cc2c1[nH]c1nc(Oc3cnc4cccnc4c3)nc(N3CC4NCCOC4C3)c12 (centres unmarked) [Compound 4.048] | 1 (≈ 2.06 µM) | ≤0.5 | –
CNc1cc(F)cc2c1[nH]c1nc(Oc3cnc(C4CC4)nc3)nc(N3CC4C(CN)C4C3)c12 (centres unmarked) [Compound 4.249] | ≤0.5 | ≤0.5 | –
CNc1cc(F)cc2c1[nH]c1nc(Oc3cncnc3)nc(N3CC(C)C(CN)C3)c12 (centres unmarked) [Compound 4.023] | 1 (≈ 2.37 µM) | ≤0.5 | –
CNc1cccc2c1[nH]c1nc(Oc3cncnc3)cc(N3CC(F)[C@@H](N)C3)c12 (some centres unmarked) [Compound 3.63] | – | – | MIC (E. coli ATCC 25922; [3]): 8 µg/mL (≈ 20.3 µM); MIC (S. aureus ATCC 13709; [4]): ≤ 0.5 µg/mL
CNc1cc(F)c(Cl)c2c1[nH]c1nc(Oc3cnc4ccnn4c3)nc(N3CC4(CC[C@@H]4N)C3)c12 [Compound 10.94] | – | – | MIC Ec (E. coli ATCC 25922; Table 18, Ec): ≤ 0.5 µg/mL; MIC Sa (S. aureus ATCC 13709; Table 18, Sa): ≤ 0.5 µg/mL
CNc1cc(F)cc2c1[nH]c1nc(Oc3cnc(N)nc3)nc(N3CCC(CN)C3)c12 (centres unmarked) [Compound 4.176] | 1 (≈ 2.36 µM) | ≤0.5 | –
CNc1cccc2c1[nH]c1nc(Sc3ccc4ccc(C(=O)O)nc4c3)nc(N3CC4C(N)C4C3)c12 (centres unmarked) [Compound 1.74] | – | – | MIC (E. coli ATCC 25922; [3]): > 64 µg/mL; MIC (S. aureus ATCC 13709; [4]): 4 µg/mL (≈ 8.04 µM)
